In US20110195433A1 (priority 2007, published 2011):
Entries after “also recorded” stand apart in the source; their conditions may differ. Structures can show the parent of a compound that is named as a salt.

What was measured:
[1] = biological target: T1, mouse DOR (Mus musculus, UniProt P32300); assay: basal [35S]GTPγS binding in DOR cell membranes with or without agonist pretreatment; type: biochemical; design: expressed in transfected cells; membranes
[2] = tested on: animals; assay: precipitated withdrawal jumping in animals; type: in vivo; details: compared with naloxone
[3] = biological target: T1, mouse DOR
[4] = biological target: T2, human KOR (Homo sapiens, UniProt P41145); assay: biochemical; details: for Emax: read-out: Emax of decrease of basal GTPγS binding
T2 construct: expressed in transfected cells; membranes

[5] = biological target: T3, human MOR (Homo sapiens, UniProt P35372)
[6] = biological target: T3, human MOR; type: biochemical; design: expressed in transfected cells; membranes

T2 sequence (P41145 whole entry): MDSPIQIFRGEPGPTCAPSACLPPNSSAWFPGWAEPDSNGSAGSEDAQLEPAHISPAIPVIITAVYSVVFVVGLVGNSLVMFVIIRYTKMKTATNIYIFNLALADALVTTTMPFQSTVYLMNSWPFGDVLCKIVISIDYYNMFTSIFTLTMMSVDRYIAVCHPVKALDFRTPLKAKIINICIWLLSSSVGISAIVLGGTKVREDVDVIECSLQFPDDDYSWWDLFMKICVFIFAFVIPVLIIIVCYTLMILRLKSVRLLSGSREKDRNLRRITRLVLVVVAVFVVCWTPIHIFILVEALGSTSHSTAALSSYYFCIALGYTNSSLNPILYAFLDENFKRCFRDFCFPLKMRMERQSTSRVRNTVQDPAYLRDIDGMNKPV
T1 sequence (P32300 whole entry): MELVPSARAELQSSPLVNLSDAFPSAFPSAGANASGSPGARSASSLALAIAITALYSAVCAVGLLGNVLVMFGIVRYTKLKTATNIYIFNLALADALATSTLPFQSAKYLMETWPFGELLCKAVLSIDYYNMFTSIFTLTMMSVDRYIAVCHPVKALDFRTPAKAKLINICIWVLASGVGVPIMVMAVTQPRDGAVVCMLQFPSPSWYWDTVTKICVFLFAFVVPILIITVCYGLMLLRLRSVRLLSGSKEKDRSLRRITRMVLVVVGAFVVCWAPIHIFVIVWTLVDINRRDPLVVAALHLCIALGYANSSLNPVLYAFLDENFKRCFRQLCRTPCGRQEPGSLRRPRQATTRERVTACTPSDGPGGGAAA
T3 sequence (P35372 whole entry): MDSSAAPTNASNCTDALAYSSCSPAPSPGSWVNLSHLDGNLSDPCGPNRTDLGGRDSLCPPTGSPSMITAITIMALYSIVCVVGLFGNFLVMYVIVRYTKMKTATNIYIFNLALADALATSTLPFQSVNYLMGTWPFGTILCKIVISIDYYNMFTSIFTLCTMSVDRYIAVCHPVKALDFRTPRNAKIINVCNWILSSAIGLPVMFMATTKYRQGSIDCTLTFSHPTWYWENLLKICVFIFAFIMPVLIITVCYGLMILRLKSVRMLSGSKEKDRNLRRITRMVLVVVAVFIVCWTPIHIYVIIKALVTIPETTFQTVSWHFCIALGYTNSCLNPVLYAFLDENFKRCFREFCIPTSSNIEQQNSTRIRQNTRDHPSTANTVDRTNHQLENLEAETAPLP

With “N,N-diallyl-Tyr-Aib-Aib-Phe-Leu-OH [ICI 174,864]” the “change of inverse agonist effects after pretreatment” value (“change of inverse agonist effects” for short) ([1]; DPDPE pre-exposure, DOR) was “decreased”, the “change of inverse agonist Emax after pretreatment” value ([1]; morphine pretreatment, DOR) was “without affecting” and the “shift of inverse agonist dose-response curve after pretreatment” value ([1]; morphine pretreatment, DOR) was “shifted the dose-response curve for ICI 174,864 to the left”.

For `Oc1ccc2c3c1O[C@H]1[C@H](O)CC[C@@]4(O)[C@@H](C2)N(CC2CC2)CC[C@]314` [6β-naltrexol], the “inhibition of the inverse agonist effect of naloxone” value ([1]; DPDPE-pretreated DOR membranes) was “inhibited”, the “pharmacological property at DOR” value ([1]; after DPDPE or morphine pretreatment) was “neutral antagonist property; also recorded: remained neutral” and the precipitated withdrawal jumping [2] was “less withdrawal jumping than naloxone”. For the same molecule, the “antagonistic property against agonist-stimulated [35S]GTPγS binding” value ([3]; 30 nM DPDPE, DOR membranes) was “full antagonists”.

With [D-Pen2,D-Pen5]-enkephalin [DPDPE] the “change of agonist Emax value after pretreatment” value [3] was “decreased”.

For `N=C(N)Nc1ccc2[nH]c3c(c2c1)CC1(O)C2Cc4ccc(O)c5c4C1(CCN2CC1CC1)C3O5` (stereo not drawn) [GNTI, 5′-guanidinyl-17-(cyclopropylmethyl)-6,7-dehydro-4,5α-epoxy-3,14-dihydroxy-6,7-2′3′-indolomorphinan dihydrochloride], the “EC50 of decrease of basal GTPγS binding” value [4] was “femtomolar range”, the “change of inverse agonist effects” value [4] was “increased” and the “pharmacological property at KOR” value [4] was “inverse agonists”. It also gave an Emax [4] of ~10%.

In the case of `Oc1ccc2c3c1O[C@H]1c4[nH]c5c(c4C[C@@]4(O)[C@@H](C2)N(CC2CC2)CC[C@]314)C[C@@]1(O)[C@H]2Cc3ccc(O)c4c3[C@@]1(CCN2CC1CC1)[C@H]5O4` [nor-BNI, nor-binaltorphimine], the “change of inverse agonist effects” value [4] is reported as “increased”, the “pharmacological property at KOR” value [4] is reported as “inverse agonists” and the Emax [4] is reported as ~10%.

With `C[C@@H](NC(=O)[C@@H](N)Cc1ccc(O)cc1)C(=O)NCC(=O)N(C)[C@@H](Cc1ccccc1)C(=O)NCCO` [DAMGO, [D-Ala2,N-Me-Phe4,Gly5-ol]-enkephalin] the “change of agonist Emax value after pretreatment” value [5] was “decreased”.

With `O=C1C(=Cc2ccccc2)C[C@@]2(O)[C@H]3Cc4ccc(O)c5c4[C@@]2(CCN3CC2CC2)[C@H]1O5` [BNTX, 7-benzylidenenaltrexone] the “change of inverse agonist effects” value [6] was “increased” and the “shift of inverse agonist dose-response curve after pretreatment” value [6] was “shifted the dose-response curve of BNTX to the left”.
